For 22 molecules, IC50 results are on record in US5990146A, “Benzimidazoles for inhibiting protein tyrosine kinase mediated cellular proliferation” (Warner-Lambert Company, priority 1998, dated 1999).

Assay type in all cases: biochemical
For experiment [1], the target named is T1, PDGF receptor tyrosine kinase (mouse PDGF-β) (Mus musculus, UniProt P05622).
T1 construct: PCR primers are designed to amplify a fragment of DNA that codes for the intracellular tyrosine kinase domain; made in house; host or cells: Sf9 insect cells (baculovirus), cell lysate
Put plainly: PDGFr tyrosine kinase assay (poly glutamate-tyrosine phosphorylation). To be noted: Table 1; 10 minutes at 25° C. On the procedure:
Platelet Derived Growth Factor Receptor (PDGFr) and Fibroblast Growth Factor Receptor (FGFr)
Full length cDNAs for the mouse PDGF-β and human FGF-1 (flg) receptor tyrosine kinases were obtained from J. Escobedo and are prepared as described in J. Biol. Chem., 262: 1482-1487 (1991). PCR primers are designed to amplify a fragment of DNA that codes for the intracellular tyrosine kinase domain. The fragment is melded into a baculovirus vector, cotransfected with AcMNPV DNA, and the recombinant virus isolated. SF9 insect cells are infected with the virus to overexpress the protein, and the cell lysate is used for the assay.
The assay is performed in 96-well plates (100 μL/incubation/well), and conditions are optimized to measure the incorporation of ^32 p from [γ^32 P]-ATP into a glutamate-tyrosine copolymer substrate. Briefly, to each well is added 82.5 μL of incubation buffer containing 25 mM Hepes (pH 7.0), 150 mM NaCl, 0.1% Triton X-100, 0.2 mM PMSF, 0.2 mM sodium vanadate, 10 mM manganese chloride, and 750 μg/mL of poly (4:1) glutamate-tyrosine followed by 2.5 μL of inhibitor and 5 μL of enzyme lysate (7.5 μg/μL FGFR-TK or 6.0 μg/μL PDGFR-TK) to initiate the reaction. Following a 10 minute incubation at 25° C., 10 μL of [γ^32 P]-ATP (0.4 μCi plus 50 μM ATP) is added to each well and samples are incubated for an additional 10 minutes at 25° C. The reaction is terminated by the addition of 100 μL of 30% trichloroacetic acid (TCA) containing 20 mM sodium pyrophosphate and precipitation of material onto glass fiber filter mats (Wallac). Filters are washed 3 times with 15% TCA containing 100 mM sodium pyrophosphate and the radioactivity retained on the filters counted in a Wallac 1250 Betaplate reader. Nonspecific activity is defined as radioactivity retained on the filters following incubation of samples with buffer alone (no enzyme). Specific enzymatic activity is defined as total activity (enzyme plus buffer) minus nonspecific activity.

For experiment [2], the target named is T2, FGF receptor tyrosine kinase (human FGF-1 (flg)) (Homo sapiens, UniProt P11362).
T2 construct: PCR primers are designed to amplify a fragment of DNA that codes for the intracellular tyrosine kinase domain; made in house; host or cells: Sf9 insect cells (baculovirus), cell lysate
The experiment in a line: FGFr tyrosine kinase assay (poly glutamate-tyrosine phosphorylation). The following applies: Table 1; 10 minutes at 25° C. On the procedure: Platelet Derived Growth Factor Receptor (PDGFr) and Fibroblast Growth Factor Receptor (FGFr) Full length cDNAs for the mouse PDGF-β and human FGF-1 (flg) receptor tyrosine kinases were obtained from J. Escobedo and are prepared as described in J. Biol. Chem., 262: 1482-1487 (1991). PCR primers are designed to amplify a fragment of DNA that codes for the intracellular tyrosine kinase domain. The fragment is […] into a baculovirus vector, cotransfected with AcMNPV DNA, and the recombinant virus isolated. SF9 insect cells are infected with the virus to overexpress the protein, and the cell lysate is used for the […] and FGFr The assay is performed in 96-well plates (100 μL/incubation/well), and conditions are optimized to measure the incorporation of ^32 p from [γ^32 P]-ATP into a glutamate-tyrosine copolymer substrate. […] The reaction is terminated by the addition of 100 μL of 30% trichloroacetic acid (TCA) containing 20 mM sodium pyrophosphate and precipitation of material onto glass fiber filter mats (Wallac). Filters are washed 3 times with 15% TCA containing 100 mM sodium pyrophosphate and the radioactivity retained on the filters counted in a Wallac 1250 Betaplate reader. Nonspecific activity is defined as radioactivity retained on the filters following incubation of samples with buffer alone (no enzyme). Specific enzymatic activity is defined as total activity (enzyme plus buffer) minus nonspecific activity.

For a further experiment, the target named is T3, c-Src (Homo sapiens, UniProt P12931).
T3 construct: made in house; host or cells: baculovirus infected insect cells
The experiment in a line: c-Src kinase assay. To be noted: Table 1; 5 μM ATP, room temperature, 10 minutes. How it is done:
c-Src kinase is purified from baculovirus infected insect cell lysates using an antipeptide monoclonal antibody directed against the N-terminal 2-17 amino acids as described previously by Fry, et al, Anticancer Drug Design. 9: 331-351 (1994). […] At the end of the lysate incubation, the beads are rinsed 3 times in lysis buffer, resuspended in lysis buffer containing 10% glycerol, and frozen. These latex beads are thawed, rinsed 3 times in assay buffer which is comprised of 40 mM tris pH 7.5, 5 mM magnesium chloride, and suspended in the same buffer. […] The reaction is started at room temperature by addition of the ATP and quenched 10 minutes later by the addition of 125 μL of 30% TCA, 0.1 M sodium pyrophosphate for 15 minutes on ice. The plate is then filtered and the wells washed with two 250-μL aliquots of 15% TCA, 0.1 M pyrophosphate. The filters are punched, counted in a liquid scintillation counter, and the data examined for inhibitory activity in comparison to a known inhibitor such as erbstatin. The method is described more fully in J. Med. Chem., 37: 598-609 (1994).

In experiment [3] the target is T4, Human EGF receptor tyrosine kinase (Homo sapiens, UniProt P00533).
T4 construct: Human EGF receptor tyrosine kinase is isolated from A431 human epidermoid carcinoma cells; endogenous in cells; host or cells: A431 human epidermoid carcinoma cells (detergent lysate, fast Q sepharose fractions)
Put plainly: EGFr tyrosine kinase assay. The following applies: Table 1; 10 μM ATP, 25° C., 10 minutes.

Another experiment concerns the target T5, insulin receptor (INSr) (Homo sapiens, UniProt P06213).
T5 construct: An assay using the intracellular kinase domains of insulin receptor (INSr) is performed
Put plainly: Insulin receptor kinase assay. To be noted: Table 1; as for EGF receptor with 10 mM manganese chloride.

Counter-ions that a name gives are not always drawn.

T2 sequence (P11362 478-767 limits assumed): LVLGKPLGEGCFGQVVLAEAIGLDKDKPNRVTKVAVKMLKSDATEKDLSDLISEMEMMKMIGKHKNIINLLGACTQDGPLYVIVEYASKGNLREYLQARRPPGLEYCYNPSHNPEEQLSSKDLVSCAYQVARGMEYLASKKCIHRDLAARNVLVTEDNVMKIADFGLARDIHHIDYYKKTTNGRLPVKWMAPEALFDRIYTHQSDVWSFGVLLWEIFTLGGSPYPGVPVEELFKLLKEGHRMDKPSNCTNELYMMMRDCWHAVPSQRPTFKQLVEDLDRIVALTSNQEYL
T5 sequence (P06213 1023-1298 limits assumed, species assumed): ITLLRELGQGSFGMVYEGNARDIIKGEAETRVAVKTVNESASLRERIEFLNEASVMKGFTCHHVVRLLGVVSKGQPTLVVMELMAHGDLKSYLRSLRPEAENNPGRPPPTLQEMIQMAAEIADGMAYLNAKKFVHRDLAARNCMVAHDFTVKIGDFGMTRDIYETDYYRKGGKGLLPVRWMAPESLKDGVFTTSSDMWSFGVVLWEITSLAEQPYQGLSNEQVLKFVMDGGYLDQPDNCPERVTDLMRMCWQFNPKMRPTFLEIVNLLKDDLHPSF
T3 sequence (P12931 whole entry, species assumed): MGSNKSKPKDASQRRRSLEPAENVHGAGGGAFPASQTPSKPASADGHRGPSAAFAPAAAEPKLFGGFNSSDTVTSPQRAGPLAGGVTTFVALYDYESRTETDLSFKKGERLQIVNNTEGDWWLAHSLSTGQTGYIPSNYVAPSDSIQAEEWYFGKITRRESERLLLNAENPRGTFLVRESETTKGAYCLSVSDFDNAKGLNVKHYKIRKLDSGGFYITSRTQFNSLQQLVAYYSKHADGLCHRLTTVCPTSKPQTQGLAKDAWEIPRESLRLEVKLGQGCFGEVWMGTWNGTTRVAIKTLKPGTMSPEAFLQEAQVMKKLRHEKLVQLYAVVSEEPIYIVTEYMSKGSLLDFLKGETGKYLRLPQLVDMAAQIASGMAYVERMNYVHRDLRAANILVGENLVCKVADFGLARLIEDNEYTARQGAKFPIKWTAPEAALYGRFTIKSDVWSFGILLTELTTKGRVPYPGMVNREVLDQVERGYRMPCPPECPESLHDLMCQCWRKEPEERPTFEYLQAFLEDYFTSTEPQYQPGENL
T1 sequence (P05622 599-961 limits assumed): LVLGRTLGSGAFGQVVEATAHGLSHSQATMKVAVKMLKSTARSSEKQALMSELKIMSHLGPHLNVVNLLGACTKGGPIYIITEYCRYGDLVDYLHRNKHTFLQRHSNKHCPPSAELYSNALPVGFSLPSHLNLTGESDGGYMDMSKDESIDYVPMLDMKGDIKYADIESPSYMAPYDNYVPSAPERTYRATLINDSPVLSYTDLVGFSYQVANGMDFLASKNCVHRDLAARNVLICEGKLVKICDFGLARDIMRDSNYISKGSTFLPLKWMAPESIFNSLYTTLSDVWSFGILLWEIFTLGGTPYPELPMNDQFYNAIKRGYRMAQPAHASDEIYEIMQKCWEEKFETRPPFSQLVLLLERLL
T4 sequence (P00533 25-1210): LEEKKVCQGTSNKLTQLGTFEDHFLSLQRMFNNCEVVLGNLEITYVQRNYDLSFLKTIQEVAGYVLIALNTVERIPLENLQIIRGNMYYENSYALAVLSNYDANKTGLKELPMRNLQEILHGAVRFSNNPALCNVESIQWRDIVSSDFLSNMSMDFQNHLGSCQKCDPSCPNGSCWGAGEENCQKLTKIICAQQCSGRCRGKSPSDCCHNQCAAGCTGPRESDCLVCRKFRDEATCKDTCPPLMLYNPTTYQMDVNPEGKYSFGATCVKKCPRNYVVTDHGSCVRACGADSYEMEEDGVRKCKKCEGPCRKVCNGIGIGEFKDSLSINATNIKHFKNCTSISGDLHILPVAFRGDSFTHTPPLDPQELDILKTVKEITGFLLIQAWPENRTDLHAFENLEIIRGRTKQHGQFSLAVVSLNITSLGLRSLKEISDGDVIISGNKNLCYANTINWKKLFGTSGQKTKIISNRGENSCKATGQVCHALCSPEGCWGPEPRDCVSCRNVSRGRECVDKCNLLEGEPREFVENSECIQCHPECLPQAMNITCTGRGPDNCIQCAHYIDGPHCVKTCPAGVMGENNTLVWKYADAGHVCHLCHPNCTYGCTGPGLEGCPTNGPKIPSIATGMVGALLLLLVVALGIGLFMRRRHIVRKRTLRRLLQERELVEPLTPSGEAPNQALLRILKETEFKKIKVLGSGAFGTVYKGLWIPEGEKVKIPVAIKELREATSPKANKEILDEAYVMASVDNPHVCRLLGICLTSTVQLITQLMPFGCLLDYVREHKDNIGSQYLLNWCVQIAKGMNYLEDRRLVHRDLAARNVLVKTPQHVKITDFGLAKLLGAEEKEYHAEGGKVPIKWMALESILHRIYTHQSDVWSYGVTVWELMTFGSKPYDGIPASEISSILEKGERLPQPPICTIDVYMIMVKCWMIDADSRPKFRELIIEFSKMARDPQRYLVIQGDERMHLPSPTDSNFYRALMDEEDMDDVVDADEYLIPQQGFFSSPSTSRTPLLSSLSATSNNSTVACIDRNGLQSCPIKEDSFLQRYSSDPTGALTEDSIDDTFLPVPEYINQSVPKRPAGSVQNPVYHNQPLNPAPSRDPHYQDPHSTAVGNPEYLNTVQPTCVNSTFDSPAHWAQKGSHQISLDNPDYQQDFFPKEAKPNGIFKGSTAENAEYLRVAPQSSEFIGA

The IC50 is the concentration that inhibits the measured activity by half. Higher therefore signals lower potency. `NC(=O)c1ccc2c(c1)ncn2-c1ccccc1` [Example 18, 1-Phenylbenzimidazole-5-carboxamide Hydrochloride]: the 50% inhibitory concentration (IC50) was 1.6 µM in experiment [1]; 9.9 µM in experiment [2]; less than 50 µM against c-Src; greater than 50 µM in experiment [3]; greater than 50 µM at insulin receptor (INSr).

For the molecule `c1ccc(-n2cnc3ccccc32)cc1` [Example 1, 1-Phenylbenzimidazole], the IC50 (in experiment [3]; on insulin receptor (INSr)) was greater than 50 µM in each case.

With `COC(=O)c1ccc(-n2cnc3ccccc32)cc1` [Example 7, 1-(4-Carbomethoxyphenyl)benzimidazole], the IC50 was 7.2 µM in experiment [1]; greater than 50 µM in experiment [2]; greater than 50 µM at c-Src; greater than 50 µM in experiment [3]; greater than 50 µM at insulin receptor (INSr).

`Oc1ccc2ncn(-c3ccccc3)c2c1` [Example 41, 6-Hydroxy-1-phenylbenzimidazole Hydrochloride]: the IC50 in experiment [1] was 2.1 µM; at c-Src, greater than 50 µM; in experiment [3], greater than 50 µM; against insulin receptor (INSr), less than 50 µM.

For `OCc1ccc2c(c1)ncn2-c1ccccc1` [Example 26, 5-(Hydroxymethyl)-1-phenylbenzimidazole], the half-inhibitory concentration (IC50) is 11.7 µM in experiment [1]; greater than 50 µM in experiment [2]; greater than 50 µM against c-Src; less than 50 µM in experiment [3]; greater than 50 µM on insulin receptor (INSr).

Consider `CC(=O)Oc1ccc2c(c1)ncn2-c1ccccc1` [Example 27, 5-Acetoxy-1-phenylbenzimidazole], for which the half-inhibitory concentration (IC50) in experiment [1] is 1.8 µM; in experiment [2], 26 µM; at c-Src, greater than 50 µM; in experiment [3] it was greater than 50 µM; against insulin receptor (INSr), greater than 50 µM.

Consider `COc1cc2ncn(-c3ccccc3)c2cc1CO` [Example 53, 6-Hydroxymethyl-5-methoxy-1-phenylbenzimidazole Hydrochloride], for which the IC50 was 0.4 µM in experiment [1], 12 µM in experiment [2], 50 µM against c-Src and greater than 50 µM at insulin receptor (INSr).

Turning to `O=Cc1ccc2c(c1)ncn2-c1ccccc1` [Example 21, 1-Phenylbenzimidazole-5-carboxaldehyde], the half-inhibitory concentration (IC50) in experiment [1] was 8.4 µM; in experiment [2], 50 µM; at c-Src, 50 µM; in experiment [3], less than 50 µM; against insulin receptor (INSr) it was greater than 50 µM.

On to `O=Cc1cccc(-n2cnc3ccccc32)c1` [Example 4, 1-(3-Formylphenyl)benzimidazole Hydrochloride], for which the 50% inhibitory concentration (IC50) in experiment [1] was 6.8 µM; in experiment [2], greater than 50 µM; against c-Src, greater than 50 µM; against insulin receptor (INSr), greater than 50 µM.

Turning to `CN(C)CCOc1ccc2c(c1)ncn2-c1ccccc1` [Example 36, 5-[2-(N,N-Dimethylamino)ethoxy]-1-phenylbenzimidazole Dihydrochloride], the half-inhibitory concentration (IC50) is 1.5 µM in experiment [1], 45 µM in experiment [2], 29 µM against c-Src and greater than 50 µM at insulin receptor (INSr).

Turning to `Oc1ccc(-n2cnc3ccccc32)cc1` [Example 6, 1-(4-Hydroxyphenyl)benzimidazole Hydrochloride], the IC50 in experiment [1] is 1.8 µM; in experiment [2] it was 5.8 µM; at c-Src it was greater than 50 µM; at insulin receptor (INSr) it was greater than 50 µM.

`c1ccc2c(c1)ncn2-c1ccncc1` [Example 10, 1-(4-Pyridinyl)benzimidazole dihydrochloride]: the IC50 in experiment [1] is 12.3 µM; in experiment [2] it was 50 µM; at c-Src it was greater than 50 µM; against insulin receptor (INSr) it was greater than 50 µM.

For the molecule `Nc1ccc2c(c1)ncn2-c1ccccc1` [Example 19, 5-Amino-1-phenylbenzimidazole], the half-inhibitory concentration (IC50) was 2.7 µM in experiment [1]; 36 µM in experiment [2]; greater than 50 µM against c-Src; greater than 50 µM in experiment [3]; greater than 50 µM against insulin receptor (INSr).

As to `c1ccc(-n2cnc3cnccc32)cc1` [Example 22, 1-Phenylimidazo-1H-imidazol[4,5-c]pyridine Hydrochloride], the IC50 was 10 µM in experiment [1], 49 µM in experiment [2], greater than 50 µM at c-Src and greater than 50 µM against insulin receptor (INSr).

Consider `NCCOc1ccc2c(c1)ncn2-c1ccccc1` [Example 35, 5-(2-Aminoethoxy)-1-phenylbenzimidazole Dihydrochloride], for which the IC50 was 0.7 µM in experiment [1], 27 µM in experiment [2], less than 50 µM against c-Src and greater than 50 µM against insulin receptor (INSr).

In the case of `COC(=O)c1cc2c(cc1OC)ncn2-c1ccccc1` [Example 51, Methyl 5-methoxy-1-phenylbenzimidazole-6-carboxylate Hydrochloride], the IC50 is 0.9 µM in experiment [1], 50 µM in experiment [2], 33 µM on c-Src and greater than 50 µM against insulin receptor (INSr).

`Oc1ccc2c(c1)ncn2-c1ccccc1` [Example 14, 5-Hydroxy-1-phenylbenzimidazole]: the IC50 in experiment [1] was 0.4 µM; in experiment [2], 6.4 µM; in experiment [3] it was greater than 50 µM; against insulin receptor (INSr), greater than 50 µM.

On to `CCC(=O)Nc1ccc2c(c1)ncn2-c1ccccc1` [Example 24, 5-Propionamido-1-phenylbenzimidazole Hydrochloride], for which the IC50 was 2.4 µM in experiment [1], 41 µM in experiment [2], greater than 50 µM against c-Src and greater than 50 µM on insulin receptor (INSr).

Regarding `Nc1cccc(-n2cnc3ccccc32)c1` [Example 3, 1-(3-Aminophenyl)benzimidazole], the concentration for half-maximal inhibition (IC50) in experiment [1] was 3.6 µM; on c-Src it was greater than 50 µM; in experiment [3], greater than 50 µM; against insulin receptor (INSr), greater than 50 µM.

As for `COC(=O)c1ccc2c(c1)ncn2-c1ccccc1` [Example 17, Methyl 1-Phenylbenzimidazole-5-carboxylate], the IC50 was 0.8 µM in experiment [1]; 6.6 µM in experiment [2]; greater than 50 µM on c-Src; greater than 50 µM in experiment [3]; greater than 50 µM against insulin receptor (INSr).

Turning to `Oc1cccc(-n2cnc3ccccc32)c1` [Example 2, 1-(3-Hydroxyphenyl)benzimidazole Hydrochloride], the IC50 in experiment [1] is 3.8 µM; in experiment [2] it was 50 µM; against c-Src, greater than 50 µM; against insulin receptor (INSr) it was greater than 50 µM.

As for `COC(=O)c1ccc2ncn(-c3ccccc3)c2c1` [Example 43, Methyl 1-phenylbenzimidazole-6-carboxylate Hydrochloride], the IC50 is 13 µM in experiment [1], greater than 50 µM on c-Src, greater than 50 µM in experiment [3] and greater than 50 µM against insulin receptor (INSr).
